According to the supplement of paper PMC10307832:

Legend:
Assay in all cases: relative viability (nuclei count vs DMSO), 5 days (fraction); higher = more cells survive
GSK126 + Palbociclib = compound: CC[C@H](C)N1C=C(C2=C(C=C(C=C21)C3=CN=C(C=C3)N4CCNCC4)C(=O)NCC5=C(C=C(NC5=O)C)C)C [GSK126] + CC(=O)c1c(C)c2cnc(Nc3ccc(N4CCNCC4)cn3)nc2n(C2CCCC2)c1=O [Palbociclib] (partner 0.5 µM)
Summary of the method: (§1)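 Dosing by pin tool came one day after lung cancer cell lines were seeded in 1536-well plates, using either one drug or a fixed anchor-drug dose plus five library-drug doses (not always all listed) in √10 steps. After 5 days, nuclei were counted on 4× images. Relative viability is treated-well nuclei count divided by vehicle-well nuclei count, and values are medians of duplicate plates.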

GSK126 + Navitoclax = compound: CC[C@H](C)N1C=C(C2=C(C=C(C=C21)C3=CN=C(C=C3)N4CCNCC4)C(=O)NCC5=C(C=C(NC5=O)C)C)C [GSK126] + CC1(C)CCC(c2ccc(Cl)cc2)=C(CN2CCN(c3ccc(C(=O)NS(=O)(=O)c4ccc(N[C@H](CCN5CCOCC5)CSc5ccccc5)c(S(=O)(=O)C(F)(F)F)c4)cc3)CC2)C1 [Navitoclax] (partner 0.5 µM)
Summary of the method: as §1

MLN4924 + AZD7762 = compound: NS(=O)(=O)OC[C@@H]1C[C@@H](n2ccc3c(N[C@H]4CCc5ccccc54)ncnc32)C[C@@H]1O [MLN4924] + NC(=O)Nc1cc(-c2cccc(F)c2)sc1C(=O)N[C@H]1CCCNC1 [AZD7762] (partner 0.2 µM)
Summary of the method: as §1

Carboplatin + Dasatinib = compound: C1CC(C1)(C(=O)O)C(=O)O.[NH2-].[NH2-].[Pt+2] [Carboplatin] + Cc1nc(Nc2ncc(C(=O)Nc3c(C)cccc3Cl)s2)cc(N2CCN(CCO)CC2)n1 [Dasatinib] (partner 0.075 µM)
Summary of the method: as §1

| Cell Line | relative viability (GSK126 + Palbociclib; first compound 0.08 µM) | relative viability (GSK126 + Palbociclib; first compound 0.253 µM) | relative viability (GSK126 + Palbociclib; first compound 0.8 µM) | relative viability (GSK126 + Palbociclib; first compound 2.53 µM) | relative viability (GSK126 + Palbociclib; first compound 8 µM) | relative viability (GSK126 + Navitoclax; first compound 0.08 µM) | relative viability (GSK126 + Navitoclax; first compound 0.253 µM) | relative viability (GSK126 + Navitoclax; first compound 0.8 µM) | relative viability (GSK126 + Navitoclax; first compound 2.53 µM) | relative viability (GSK126 + Navitoclax; first compound 8 µM) | relative viability (MLN4924 + AZD7762; first compound 0.04 µM) | relative viability (MLN4924 + AZD7762; first compound 0.1265 µM) | relative viability (MLN4924 + AZD7762; first compound 0.4 µM) | relative viability (MLN4924 + AZD7762; first compound 1.265 µM) | relative viability (MLN4924 + AZD7762; first compound 4 µM) | relative viability (Carboplatin + Dasatinib; first compound 0.08 µM) | relative viability (Carboplatin + Dasatinib; first compound 0.253 µM) | relative viability (Carboplatin + Dasatinib; first compound 0.8 µM) | relative viability (Carboplatin + Dasatinib; first compound 2.53 µM) | relative viability (Carboplatin + Dasatinib; first compound 8 µM) |
| --- | --- | --- | --- | --- | --- | --- | --- | --- | --- | --- | --- | --- | --- | --- | --- | --- | --- | --- | --- | --- |
| 201T | 0.442 | 0.356 | 0.378 | 0.387 | 0.382 | 1.18 | 1.27 | 1.27 | 1.26 | 1.32 | 0.822 | 0.624 | 0.391 | 0.235 | 0.242 | 0.575 | 0.571 | 0.569 | 0.487 | 0.576 |
| A549 | – | – | – | – | – | 1.37 | 1.28 | 1.23 | 1.24 | 1.13 | – | – | – | – | – | – | – | – | – | – |
| A-427 | 0.534 | 0.519 | 0.517 | 0.5 | 0.491 | 1.04 | 1 | 0.836 | 0.959 | 0.845 | 0.502 | 0.324 | 0.366 | 0.172 | 0.217 | 0.728 | 0.772 | 0.716 | 0.704 | 0.657 |
| ABC-1 | 0.768 | 0.735 | 0.675 | 0.98 | 0.675 | – | – | – | – | – | 0.985 | 1.17 | 0.52 | 0.23 | 0.258 | 0.654 | 0.639 | 0.522 | 0.546 | 0.458 |
| BEN | 0.482 | 0.41 | 0.5 | 0.506 | 0.473 | 0.0742 | 0.0598 | 0.0517 | 0.0958 | 0.0522 | 0.66 | 0.76 | 0.561 | 0.321 | 0.264 | 0.339 | 0.296 | 0.284 | 0.319 | 0.228 |
| CAL-12T | 0.491 | 0.458 | 0.515 | 0.416 | 0.41 | 1.27 | 1.27 | 0.967 | 1.1 | 1.33 | 0.522 | 0.514 | 0.365 | 0.274 | 0.247 | 0.375 | 0.502 | 0.419 | 0.521 | 0.372 |
| COR-L23 | 0.307 | 0.265 | 0.259 | 0.279 | 0.352 | 1.17 | 1.01 | 0.834 | 0.95 | 0.968 | – | – | – | – | – | 0.51 | 0.536 | 0.436 | 0.373 | 0.216 |
| COR-L 105 | 0.42 | 0.423 | 0.421 | 0.377 | 0.415 | 0.813 | 0.745 | 0.754 | 0.678 | 0.719 | – | – | – | – | – | 0.364 | 0.351 | 0.37 | 0.293 | 0.297 |
| Calu-6 | – | – | – | – | – | 0.936 | 0.858 | 0.853 | 0.842 | 0.795 | – | – | – | – | – | – | – | – | – | – |
| ChaGo-K-1 | 0.93 | 0.905 | 0.914 | 1.04 | 0.914 | 1.19 | 0.925 | 1.03 | 1.27 | 1.09 | 0.861 | 0.701 | 0.508 | 0.193 | 0.159 | 0.559 | 0.61 | 0.612 | 0.477 | 0.309 |
| EBC-1 | – | – | – | – | – | 0.449 | 0.407 | 0.365 | 0.477 | 0.362 | – | – | – | – | – | – | – | – | – | – |
| EKVX | 0.455 | 0.366 | 0.38 | 0.405 | 0.363 | 0.984 | 0.95 | 0.902 | 0.97 | 0.853 | 0.854 | 0.784 | 0.674 | 0.314 | 0.232 | 0.603 | 0.582 | 0.48 | 0.446 | 0.495 |
| EMC-BAC-2 | 0.519 | 0.515 | 0.516 | 0.503 | 0.499 | 1.09 | 1.18 | 1.14 | 1.18 | 1.23 | 1.06 | 0.869 | 0.377 | 0.224 | 0.288 | 0.327 | 0.343 | 0.305 | 0.271 | 0.281 |
| EPLC-272H | 0.344 | 0.324 | 0.33 | 0.374 | 0.301 | 1.24 | 1.15 | 1.29 | 1.17 | 1.2 | 0.27 | 0.239 | 0.0814 | 0.133 | 0.106 | 0.455 | 0.342 | 0.326 | 0.365 | 0.399 |
| H3255 | 0.291 | 0.316 | 0.319 | 0.296 | 0.31 | 0.591 | 0.606 | 0.5 | 0.522 | 0.505 | 0.784 | 0.797 | 0.457 | 0.267 | 0.33 | 0.367 | 0.416 | 0.418 | 0.415 | 0.334 |
| HCC-44 | 0.96 | 1.04 | 1.01 | 0.916 | 0.894 | 0.963 | 0.981 | 0.853 | 0.906 | 1.01 | 1.03 | 0.992 | 0.824 | 0.563 | 0.478 | – | – | – | – | – |
| IA-LM | – | – | – | – | – | 0.702 | 0.691 | 0.758 | 0.761 | 0.947 | – | – | – | – | – | – | – | – | – | – |
